Source: ChEMBL document CHEMBL1201862, “PubChem BioAssay data set” (2004)
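A five-concentration, 48-hour dose response in 96-well plates underlies each endpoint, interpolated linearly between surrounding concentrations. Here, GI50 denotes the concentration required for 50% inhibition of growth.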 The source made the active and inactive calls. No stated cut-off is given here; in the data, active = GI50 up to about 1.1 µM and inactive = higher.

What was measured:
Assay in all cases: DTP human tumour cell line panel, 48 h
NCI-H522 = system: NCI-H522
MOLT-4 = system: MOLT-4
NCI-H226 = system: NCI-H226
M14 = system: M14
ACHN = system: ACHN
SK-MEL-28 = system: SK-MEL-28
A549 = system: A549
HCT-15 = system: HCT-15
SNB-75 = system: SNB-75
Malme-3M = system: Malme-3M
CAKI-1 = system: CAKI-1
TK-10 = system: TK-10
OVCAR-5 = system: OVCAR-5
EKVX = system: EKVX
HL-60 = system: HL-60
HT-29 = system: HT-29
SN12C = system: SN12C
SF-268 = system: SF-268
A498 = system: A498

Compound | GI50 (NCI-H522) | GI50 (MOLT-4) | GI50 (NCI-H226) | GI50 (M14) | GI50 (ACHN) | GI50 (SK-MEL-28) | GI50 (A549) | GI50 (HCT-15) [µM] | GI50 (SNB-75) | GI50 (Malme-3M) | GI50 (CAKI-1) | GI50 (TK-10) | GI50 (OVCAR-5) | GI50 (EKVX) | GI50 (HL-60) | GI50 (HT-29) | GI50 (SN12C) | GI50 (SF-268) | GI50 (A498)
O=c1c2cc3c(cc2c2cccc4c2n1CCC4)OCO3 | 16.2 µM (inactive) | 24.6 µM (inactive) | > 100 µM (inactive) | 46.9 µM (inactive) | 33.7 µM (inactive) | 69.5 µM (inactive) | 51.6 µM (inactive) | 36.7 | 26.7 µM (inactive) | 86.1 µM (inactive) | 78.9 µM (inactive) | 27.1 µM (inactive) | 58.7 µM (inactive) | 33 µM (inactive) | 53.8 µM (inactive) | 51.1 µM (inactive) | 36.8 µM (inactive) |  | 
C/C(=N\NC(=S)N1CCCCCC1)c1nccnc1C |  | 0.0658 µM (active) |  | < 0.01 µM (active) | 0.219 µM (active) | 0.106 µM (active) | 0.0331 µM (active) | < 0.01 | 0.605 µM (active) | 11.8 µM (inactive) | 0.155 µM (active) | 0.56 µM (active) | 0.169 µM (active) | 0.0188 µM (active) | 0.0508 µM (active) | 0.0719 µM (active) | 0.285 µM (active) | 0.176 µM (active) | 1.58 µM (inactive)
CCCCCCCCCCCCCC(=O)NCC(OCC)OCC | > 100 µM (inactive) |  | > 100 µM (inactive) | > 100 µM (inactive) | > 100 µM (inactive) | > 100 µM (inactive) | > 100 µM (inactive) | > 100 | > 100 µM (inactive) | > 100 µM (inactive) |  | > 100 µM (inactive) | > 100 µM (inactive) | > 100 µM (inactive) | > 100 µM (inactive) | > 100 µM (inactive) | > 100 µM (inactive) | > 100 µM (inactive) | > 100 µM (inactive)
O=C1C=C(Nc2ccccc2C(=O)c2ccccc2)c2ccccc2C1=O | 25 µM (inactive) |  | > 100 µM (inactive) | > 100 µM (inactive) | 45 µM (inactive) | > 100 µM (inactive) | > 100 µM (inactive) | 70.5 | 96.6 µM (inactive) | > 100 µM (inactive) | > 100 µM (inactive) |  | > 100 µM (inactive) | > 100 µM (inactive) |  | > 100 µM (inactive) | 42.8 µM (inactive) | > 100 µM (inactive) | > 100 µM (inactive)
COC(=O)C1=C(c2cc(OC)c(OC)c(OC)c2)O[C@H](c2ccc3c(c2)OCO3)[C@H]1COC(C)=O |  | 18.7 µM (inactive) | 33 µM (inactive) | 15.3 µM (inactive) | 26.4 µM (inactive) |  |  | 22.1 | 27.3 µM (inactive) | 34.4 µM (inactive) | 19.8 µM (inactive) | 39.2 µM (inactive) | 48.6 µM (inactive) | 41.6 µM (inactive) | 15.6 µM (inactive) | 18.6 µM (inactive) | 24.7 µM (inactive) |  | 21.4 µM (inactive)
CN1CCc2ccccc2C(C(=O)c2ccc3c(c2)OCO3)C1=O (stereo unspecified) | > 100 µM (inactive) | > 100 µM (inactive) | 99.5 µM (inactive) | > 100 µM (inactive) | > 100 µM (inactive) | > 100 µM (inactive) | > 100 µM (inactive) | > 100 | > 100 µM (inactive) | > 100 µM (inactive) | > 100 µM (inactive) | > 100 µM (inactive) |  |  | > 100 µM (inactive) | > 100 µM (inactive) | > 100 µM (inactive) | > 100 µM (inactive) | > 100 µM (inactive)
CCOC(=O)NNC(=O)NC12CC3CC(CC(C3)C1)C2 | > 100 µM (inactive) | > 100 µM (inactive) | > 100 µM (inactive) | > 100 µM (inactive) | > 100 µM (inactive) | > 100 µM (inactive) | > 100 µM (inactive) | > 100 | > 100 µM (inactive) | > 100 µM (inactive) | > 100 µM (inactive) | > 100 µM (inactive) | > 100 µM (inactive) | > 100 µM (inactive) |  | > 100 µM (inactive) | > 100 µM (inactive) | > 100 µM (inactive) | > 100 µM (inactive)
CCOC(=O)C(C(=O)OCC)=c1sc(=C(C(=O)OCC)C(=O)OCC)s1 | > 100 µM (inactive) | > 100 µM (inactive) |  | > 100 µM (inactive) | > 100 µM (inactive) | > 100 µM (inactive) | > 100 µM (inactive) | > 100 | 76.2 µM (inactive) | > 100 µM (inactive) | > 100 µM (inactive) | > 100 µM (inactive) | > 100 µM (inactive) | > 100 µM (inactive) | > 100 µM (inactive) | > 100 µM (inactive) | > 100 µM (inactive) | > 100 µM (inactive) | 
Cc1[nH]c2c(C)cccc2c1C1Cc2ccccc2N1 (stereo unspecified) | 19.5 µM (inactive) | 20.5 µM (inactive) | 23.8 µM (inactive) | 15.5 µM (inactive) | 27.4 µM (inactive) | 18.8 µM (inactive) | 21.7 µM (inactive) | 21.3 | > 100 µM (inactive) | 19.1 µM (inactive) |  | 23 µM (inactive) | 21.2 µM (inactive) | 15.5 µM (inactive) | 19.8 µM (inactive) | 19.5 µM (inactive) | 21.2 µM (inactive) | 20.5 µM (inactive) | 28.6 µM (inactive)
O=C(CSc1nnc(Cc2ccccc2)o1)Nc1ccc(Cl)cc1[N+](=O)[O-] | 3.17 µM (inactive) | 18.9 µM (inactive) | 21.2 µM (inactive) | 16.5 µM (inactive) | 12.6 µM (inactive) | 15.5 µM (inactive) | 18.9 µM (inactive) | 16.5 | 18.9 µM (inactive) | 16.4 µM (inactive) |  | 17.1 µM (inactive) |  | 20.3 µM (inactive) | 24.7 µM (inactive) | 22.3 µM (inactive) | 17.5 µM (inactive) | 21.5 µM (inactive) | 
CC(=O)OCc1c(O)nc2c(c1O)-c1ccccc1CC2 | 35.6 µM (inactive) | 97.5 µM (inactive) | > 350 µM (inactive) |  | 163 µM (inactive) | 59.6 µM (inactive) | 134 µM (inactive) | 57.5 |  | > 35 µM (inactive) | 59.2 µM (inactive) | 86.9 µM (inactive) |  | 125 µM (inactive) | 84.7 µM (inactive) | 113 µM (inactive) | 62.2 µM (inactive) | 77.1 µM (inactive) | 
COc1cc(/C=C2\CCc3ccccc3C2=O)cc(OC)c1OC | 14.8 µM (inactive) | 9.4 µM (inactive) | 18.6 µM (inactive) | 16.2 µM (inactive) | 15.8 µM (inactive) | 15.1 µM (inactive) | 20.9 µM (inactive) | 17.3 | 22.2 µM (inactive) | 16.4 µM (inactive) | 16.1 µM (inactive) | 17.8 µM (inactive) | 14.4 µM (inactive) | 17.9 µM (inactive) | 10.7 µM (inactive) | 17.5 µM (inactive) | 18 µM (inactive) | 16.4 µM (inactive) | 
